Like-named read-outs stand apart in the source and are kept apart here.
Molecular target: T1, N-type calcium channel (Homo sapiens, UniProt Q00975)
T1 construct: expressed in transfected cells; host or cells: HEK 293
Test: Patch-Clamp blockade of voltage-dependent N-type calcium channels in recombinant HEK 293 cells
Assay type: cell-based
Source text: The antinociceptive activity of the compounds of this invention is based on a blockade of the voltage-dependent N-type calcium channels. This inhibiting activity is detected electrophysiologically by the Patch-Clamp technique (cf: Improved patch-clamp techniques for high resolution current recording from cells and cell-free membrane patches; Hamill et al.; Pflügers Archiv, 391, 1981, 85-100) on recombinant HEK 293 cells which express the N-type calcium channel.

[1] = N-type calcium channel, Patch-Clamp, HEK 293 cells, read-out: IC50 value
[2] = Patch-Clamp technique, recombinant HEK 293 cells which express the N-type calcium channel, read-out: IC50 values

T1 sequence (Q00975 whole entry): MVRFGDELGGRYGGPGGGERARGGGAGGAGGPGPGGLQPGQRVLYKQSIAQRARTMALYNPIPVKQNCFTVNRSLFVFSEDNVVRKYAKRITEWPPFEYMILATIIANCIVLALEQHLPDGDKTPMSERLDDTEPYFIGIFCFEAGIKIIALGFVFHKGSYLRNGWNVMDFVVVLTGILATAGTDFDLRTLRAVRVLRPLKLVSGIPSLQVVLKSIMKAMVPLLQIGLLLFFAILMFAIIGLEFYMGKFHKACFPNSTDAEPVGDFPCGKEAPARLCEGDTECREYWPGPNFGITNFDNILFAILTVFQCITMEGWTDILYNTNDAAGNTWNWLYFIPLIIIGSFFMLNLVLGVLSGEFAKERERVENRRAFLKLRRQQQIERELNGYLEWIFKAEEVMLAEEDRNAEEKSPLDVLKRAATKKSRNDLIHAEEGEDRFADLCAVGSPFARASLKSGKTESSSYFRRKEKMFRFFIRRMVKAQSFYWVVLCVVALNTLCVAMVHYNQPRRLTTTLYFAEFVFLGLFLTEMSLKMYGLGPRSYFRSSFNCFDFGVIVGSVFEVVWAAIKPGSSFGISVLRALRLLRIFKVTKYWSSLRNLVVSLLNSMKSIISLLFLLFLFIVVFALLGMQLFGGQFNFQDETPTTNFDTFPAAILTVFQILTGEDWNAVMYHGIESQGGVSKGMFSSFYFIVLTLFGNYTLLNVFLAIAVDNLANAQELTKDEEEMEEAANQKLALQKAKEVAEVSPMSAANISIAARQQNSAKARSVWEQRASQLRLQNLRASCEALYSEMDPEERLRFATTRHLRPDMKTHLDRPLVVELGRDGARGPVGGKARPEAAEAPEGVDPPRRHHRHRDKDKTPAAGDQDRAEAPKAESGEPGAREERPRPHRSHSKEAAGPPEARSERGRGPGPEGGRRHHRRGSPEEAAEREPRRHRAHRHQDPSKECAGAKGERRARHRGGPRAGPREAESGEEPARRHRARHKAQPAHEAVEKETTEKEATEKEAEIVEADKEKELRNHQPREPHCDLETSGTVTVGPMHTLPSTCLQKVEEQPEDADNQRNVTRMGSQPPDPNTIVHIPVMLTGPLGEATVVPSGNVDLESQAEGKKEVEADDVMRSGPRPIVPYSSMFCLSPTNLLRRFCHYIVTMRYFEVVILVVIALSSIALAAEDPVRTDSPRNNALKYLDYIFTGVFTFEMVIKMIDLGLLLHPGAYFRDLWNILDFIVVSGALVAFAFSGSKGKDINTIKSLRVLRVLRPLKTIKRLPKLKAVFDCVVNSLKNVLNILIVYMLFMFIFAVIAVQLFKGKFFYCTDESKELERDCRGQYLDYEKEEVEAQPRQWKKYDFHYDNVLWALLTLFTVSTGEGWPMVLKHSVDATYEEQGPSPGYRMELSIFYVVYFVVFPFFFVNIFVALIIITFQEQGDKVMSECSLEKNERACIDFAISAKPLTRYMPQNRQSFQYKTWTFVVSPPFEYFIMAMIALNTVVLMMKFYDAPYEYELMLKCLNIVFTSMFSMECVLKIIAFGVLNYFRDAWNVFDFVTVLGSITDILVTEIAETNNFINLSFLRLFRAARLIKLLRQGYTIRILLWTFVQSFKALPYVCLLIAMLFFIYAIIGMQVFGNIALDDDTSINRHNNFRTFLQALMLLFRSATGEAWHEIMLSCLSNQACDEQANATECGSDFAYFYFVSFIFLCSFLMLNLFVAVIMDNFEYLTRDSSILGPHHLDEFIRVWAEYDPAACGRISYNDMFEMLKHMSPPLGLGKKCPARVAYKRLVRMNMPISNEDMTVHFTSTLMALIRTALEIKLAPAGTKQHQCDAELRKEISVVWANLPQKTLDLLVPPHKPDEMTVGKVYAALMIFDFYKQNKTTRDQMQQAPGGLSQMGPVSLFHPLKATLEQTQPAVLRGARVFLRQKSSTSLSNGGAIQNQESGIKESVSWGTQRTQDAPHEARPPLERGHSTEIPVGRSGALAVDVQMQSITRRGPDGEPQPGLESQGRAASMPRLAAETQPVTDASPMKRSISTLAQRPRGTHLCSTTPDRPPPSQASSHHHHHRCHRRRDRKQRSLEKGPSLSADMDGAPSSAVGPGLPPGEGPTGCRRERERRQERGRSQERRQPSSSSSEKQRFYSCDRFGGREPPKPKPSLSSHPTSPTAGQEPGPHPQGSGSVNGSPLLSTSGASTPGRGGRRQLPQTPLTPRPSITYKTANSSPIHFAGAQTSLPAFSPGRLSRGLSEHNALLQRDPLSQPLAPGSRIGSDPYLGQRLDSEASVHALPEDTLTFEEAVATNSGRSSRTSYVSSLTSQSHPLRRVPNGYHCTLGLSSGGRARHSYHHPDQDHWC
T1 sequence (P54289 25-956 partner limits assumed): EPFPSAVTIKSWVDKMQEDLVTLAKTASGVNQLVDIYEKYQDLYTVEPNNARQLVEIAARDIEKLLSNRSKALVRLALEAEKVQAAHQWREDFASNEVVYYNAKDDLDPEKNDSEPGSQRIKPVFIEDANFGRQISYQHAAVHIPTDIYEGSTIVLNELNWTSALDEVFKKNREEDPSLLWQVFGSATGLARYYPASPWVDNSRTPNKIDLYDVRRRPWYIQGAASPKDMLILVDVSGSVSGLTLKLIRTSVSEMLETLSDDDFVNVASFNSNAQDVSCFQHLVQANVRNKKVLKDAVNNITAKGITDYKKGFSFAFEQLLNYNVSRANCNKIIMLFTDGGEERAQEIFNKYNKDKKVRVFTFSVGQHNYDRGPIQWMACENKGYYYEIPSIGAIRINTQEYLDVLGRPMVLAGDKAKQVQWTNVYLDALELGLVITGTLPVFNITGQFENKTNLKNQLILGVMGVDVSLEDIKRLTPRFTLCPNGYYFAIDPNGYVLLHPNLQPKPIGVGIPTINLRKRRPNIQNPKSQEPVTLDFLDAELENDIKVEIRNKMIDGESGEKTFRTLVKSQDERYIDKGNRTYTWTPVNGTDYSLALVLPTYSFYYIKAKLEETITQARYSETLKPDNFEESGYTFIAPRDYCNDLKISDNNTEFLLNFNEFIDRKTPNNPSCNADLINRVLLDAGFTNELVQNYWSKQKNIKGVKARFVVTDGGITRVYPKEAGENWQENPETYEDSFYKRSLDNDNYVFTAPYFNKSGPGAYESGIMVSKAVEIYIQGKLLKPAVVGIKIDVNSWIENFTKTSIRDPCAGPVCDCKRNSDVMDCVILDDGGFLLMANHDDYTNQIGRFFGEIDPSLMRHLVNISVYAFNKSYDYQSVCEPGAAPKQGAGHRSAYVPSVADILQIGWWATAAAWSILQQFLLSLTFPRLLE
T1 sequence (P54289 957-1103 partner limits assumed): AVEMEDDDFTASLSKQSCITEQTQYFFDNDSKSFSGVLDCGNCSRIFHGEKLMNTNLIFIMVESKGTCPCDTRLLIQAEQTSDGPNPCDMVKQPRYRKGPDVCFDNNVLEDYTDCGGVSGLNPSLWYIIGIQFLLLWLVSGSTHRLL
T1 sequence (P54284 whole entry partner): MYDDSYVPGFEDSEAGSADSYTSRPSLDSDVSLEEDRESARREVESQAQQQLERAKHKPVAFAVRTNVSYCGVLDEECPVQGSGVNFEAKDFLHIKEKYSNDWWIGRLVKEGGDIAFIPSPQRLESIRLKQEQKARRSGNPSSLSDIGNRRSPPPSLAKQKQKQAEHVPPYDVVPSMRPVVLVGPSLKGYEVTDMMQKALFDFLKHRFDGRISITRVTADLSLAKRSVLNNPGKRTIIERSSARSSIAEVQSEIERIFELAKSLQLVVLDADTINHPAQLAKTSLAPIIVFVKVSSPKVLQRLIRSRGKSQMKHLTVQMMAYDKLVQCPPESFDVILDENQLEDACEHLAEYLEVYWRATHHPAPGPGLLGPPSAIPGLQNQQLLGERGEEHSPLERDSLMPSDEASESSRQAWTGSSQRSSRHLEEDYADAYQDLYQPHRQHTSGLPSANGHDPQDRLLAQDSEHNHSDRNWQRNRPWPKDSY

SMILES	IC50 [1]	IC50 [2]	further results
CNc1cc(-c2ccncc2)nc2ccc3c(ncn3C)c12 [Example 1, 3-methyl-9-methylamino-7-(pyridin-4-yl)-3H-imidazo[4,5-f]quinoline]	9.9 µM		
CN(C)c1cc(-c2cccc(F)c2)nc2ccc3c(ncn3C)c12 [Example 3, 9-dimethylamino-7-(3-fluorophenyl)-3-methyl-3H-imidazo [4,5-f]quinoline]			IC50 value (N-type calcium channel, Patch-Clamp, HEK 293 cells): biphasic
Cc1nc2c(ccc3nc(-c4cccc(F)c4)cc(N(C)C)c32)s1 [Example 4, 9-dimethylamino-7-(3-fluorophenyl)-2-methyl-thiazolo[4,5-f]quinoline]		3.6 µM	
CN(C)c1cc(-c2cccc(F)c2)nc2ccc3ncsc3c12 [Example 5, 9-dimethylamino-7-(3-fluorophenyl)-thiazolo[5,4-f]quinoline]	14.3 µM		

More lines, main results first:

IC50 [1]	IC50 [2]	SMILES	further results
15.2 µM		CNc1cc(-c2cccc(F)c2)nc2ccc3c(ncn3C)c12 [Example 2, 7-(3-fluorophenyl)-3-methyl-9-methylamino-3H-imidazo [4,5-f]quinoline]	
	2 µM	CNc1cc(-c2cccc(F)c2)nc2ccc3sc(C)nc3c12 [Example 6, 7-(3-fluorophenyl)-2-methyl-9-methylamino thiazolo[4,5-f]quinoline]	

— US20040214833A1, “Tricyclic heteroaromatic compounds” (Boehringer Ingelheim International GmbH, priority 2003, published 2004)
